Results as given in US4837207A, “Diastereoisomers of n^6 -endo-bicyclo[2.2.1]heptyladenosine as antihypertensives with selective action” (priority 1987, dated 1989).

Experiments:
[1] = Antihypertensive evaluation (AHP3); assay type: in vivo; conditions: AHP3 antihypertensive assay; Table 2; read-out: ED40 (Dose causing a 40 nm drop in blood pressure)
Excerpt: *Dose causing a […] drop in blood pressure, mg/kg.

[2] = molecular target: T1, A1 adenosine receptor (Rattus norvegicus, UniProt P25099); test: adenosine A1 receptor binding affinity; conditions: Table 1, n = 2 (mixture, VII'), n = 1 (VII"), read-out: A1 IC50 ± SE
T1 construct: from tissue
T1 sequence (P25099 1-326): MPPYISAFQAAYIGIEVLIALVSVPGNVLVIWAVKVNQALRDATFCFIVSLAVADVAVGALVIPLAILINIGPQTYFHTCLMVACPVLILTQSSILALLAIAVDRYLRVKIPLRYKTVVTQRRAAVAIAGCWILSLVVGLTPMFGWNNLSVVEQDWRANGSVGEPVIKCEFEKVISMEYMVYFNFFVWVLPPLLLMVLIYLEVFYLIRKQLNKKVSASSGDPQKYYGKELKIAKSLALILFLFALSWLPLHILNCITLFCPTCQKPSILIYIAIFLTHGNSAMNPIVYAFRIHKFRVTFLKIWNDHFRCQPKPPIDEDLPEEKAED

| SMILES | ED (40 mm drop in blood pressure) [1] [mg/kg] | IC50 [2] [nM] |
| --- | --- | --- |
| OC[C@H]1O[C@@H](n2cnc3c(N[C@H]4C[C@H]5CC[C@@H]4C5)ncnc32)[C@H](O)[C@@H]1O [Example 1 (VII'), (1R-endo)-N-Bicyclo[2.2.1]hept-2-yl adenosine] | 0.16 | – |
| OC[C@H]1O[C@@H](n2cnc3c(N[C@@H]4C[C@@H]5CC[C@H]4C5)ncnc32)[C@H](O)[C@@H]1O [Example 2 (VII"), (1S-endo)-N-Bicyclo[2.2.1]hept-2-yl adenosine] | 0.7 | 2.63 |
| OC[C@H]1O[C@@H](n2cnc3c(NC4CC5CCC4C5)ncnc32)[C@H](O)[C@@H]1O (mixture of isomers) [Diastereomeric mixture, N^6-endo-bicyclo[2.2.1]heptyl adenosine] | 0.6 | 0.738 ± 0.088 |
